Reference: patent publication US10022317B2, “Composition comprising an extract of herbal medicine processed by an oriental herbal medicine processing” (AMOREPACIFIC CORPORATION, priority 2013, dated 2018)

Experiments:
procollagen = assay: Procollagen production promoting effect in human fibroblasts (procollagen type-1 C-peptide EIA kit); type: cell-based; details: 10^-4 M in serum-free DMEM, 24 hours, relative to non-treated group as 100
Procedure: The procollagen production promoting activity of the substances of Comparative Examples and Examples was compared with that of vitamin C. Human fibroblasts were seeded onto a 96-well plate holding Dulbecco's modified Eagle's medium (DMEM) comprising 2.5% fetal bovine serum, with 5,000 cells/well, and cultured until ˜90% confluency. The cells were further cultured in serum-free DMEM for 24 hours and treated with the mixture of oriental herbal medicine processed ginseng polysaccharide and green tea polysaccharide prepared in Comparative Examples 1-5 and Examples 1-6 and vitamin C dissolved to 10^−4 M in serum-free DMEM for 24 hours. 24 hours later, the amount of free procollagen was measured using the procollagen type-1 C-peptide EIA kit (MK101, Takara, Japan). The level of procollagen production is given in Table 2 relative to the non-treated group as 100.

collagenase = assay: Collagenase expression inhibiting effect in human fibroblasts (collagenase kit, absorbance 405 nm); type: cell-based; details: 10^-4 M in serum-free DMEM, 24 hours, relative to non-treated group as 100
Procedure: The collagenase production inhibiting activity of the substances of Comparative Examples and Examples was compared with tocopherol and EGCG as control substances.
Human fibroblasts were seeded onto a 96-well plate holding Dulbecco's modified Eagle's medium (DMEM) comprising 2.5% fetal bovine serum, with 5,000 cells/well, and cultured until ˜90% confluency. The cells were further cultured in serum-free DMEM for 24 hours and treated with the mixture of oriental herbal medicine processed ginseng polysaccharide and green tea polysaccharide prepared in Comparative Examples 1-5 and Examples 1-6 at 10^−4 M in serum-free DMEM for 24 hours. Then the cell culture was collected.
The degree of collagenase production from the collected cell culture was measured using a commercially available collagenase kit (Amersham Pharmacia, USA). […]
Absorbance was measured at 405 nm using a spectrophotometer and the expression level of collagenase was calculated according to Equation 1. The expression level was calculated with respect to the non-treated control group. Expression level of collagenase (%)=[…]{(Absorbance of cells treated with substances of Comparative Example or Example÷Absorbance of control)×100} [Equation 1] […]

Compound	Level of procollagen production (%) (procollagen)	Expression level of collagenase (%) (collagenase)
O=C1O[C@H]([C@@H](O)CO)C(O)=C1O [Vitamin C]	121%	–
O=C(O[C@@H]1Cc2c(O)cc(O)cc2O[C@@H]1c1cc(O)c(O)c(O)c1)c1cc(O)c(O)c(O)c1 [EGCG]	–	63%
Tocopherol	–	76%
